# Measured values as given in patent US20180193361A1, “GUT ANTI-INFLAMMATORY AGENTS FOR REGULATION OF HIGH BLOOD GLUCOSE LEVELS” (UNIVERSITY HEALTH NETWORK, priority 2015, published 2018).
# B1: IFNγ: recombinant mouse IFNγ (Biolegend) (protein, UniProt P01580 23-155, looked up)
# Interferon gamma: HGTVIESLESLNNYFNSSGIDVEEKSLFLDIWRNWQKDGDMKILQSQIISFYLRLFEVLKDNQAISNNISVIESHLITTFFSNSKAKKDAFMSIAKFEVNNPQVQRQAFNELIRVVHQLLPESSLRKRKRSRC
# Tests used:
# gut epithelial barrier = settings: models of IBD (Di Paolo et al., 1996; Liu et al., 2009); cited from earlier work
# [1] = tablet; the remaining has local effects in the colon; cited from earlier work
# MODE-K intestinal cells = experiment: ZO-1 expression in MODE-K cells treated with IFNγ; format: cell-based, murine; settings: recombinant mouse IFNγ 5 or 10 ng/mL, 24 hours
# Protocol: To measure the effect of IFNγ on tight-junction gene expression, we treated MODE-K cells with recombinant mouse IFNγ (Biolegend). We purified bulk dendritic cells and T cells from murine small bowels and spleens using a negative selection DC or T cell isolation kit (Stem Cell Technologies). We plated T cells at 5×10^5 cells/well with plate-bound anti-CD3/CD28 (1 μg/ml, Biolegend). […] We collected supernatants for cytokine measurements after 72 hour incubation. […] After 24 hours, we washed the cells with PBS and co-cultured them (1×10^4 cells/well) with OVA323-339 peptide and OT-II splenic or small bowel T cells (5×10^4 cells/well) for 48 hours. Supernatants were collected at 48 hours for cytokine measurement.
# The murine intestinal epithelial cell line derived from C3H/He mice. […]
# We extracted total RNA from isolated or cultured cells using a RNeasy Mini Kit (Qiagen), and for subcutaneous adipose tissue (SAT) and VAT we used a RNeasy Lipid Extraction kit (Qiagen). […] We assessed expression of adipocyte P2 (aP2), CCAAT/enhancer-binding protein-α (CEBPα), Peroxisome proliferator-activated receptor-γ (PPARγ), and sterol regulatory element-binding protein (SREBP) cDNA. […] We calculated relative fold changes in gene expression normalized to 18s or GAPDH by the ΔΔCT method using the equation 2-ΔΔCT. […]
molecule,measurement,setting,value
O=C(O)CCNC(=O)c1ccc(/N=N/c2ccc(O)c(C(=O)O)c2)cc1 [Balsalazide],intactness of the gut epithelial barrier,gut epithelial barrier,beneficial effects
O=C(O)c1cc(/N=N/c2ccc(S(=O)(=O)Nc3ccccn3)cc2)ccc1O [Sulfasalazine],absorbed in small bowel,[1],approximately 20%
B1,ZO-1 tight junction gene expression,MODE-K intestinal cells,reduce
